{"source": "patent US20230113037A1", "about": "(Bayer Aktiengesellschaft, priority 2019, published 2023)", "key": {"AHR [1]": {"biological_target": "T1, AHR (Homo sapiens, UniProt P35869)", "T1 construct": "U87 MG glioblastoma cells (ATCC #HTB-14) endogenously expressing AHR; endogenous in cells; host or cells: U87 MG glioblastoma cells (ATCC #HTB-14)", "T1 sequence (P35869 11-848)": "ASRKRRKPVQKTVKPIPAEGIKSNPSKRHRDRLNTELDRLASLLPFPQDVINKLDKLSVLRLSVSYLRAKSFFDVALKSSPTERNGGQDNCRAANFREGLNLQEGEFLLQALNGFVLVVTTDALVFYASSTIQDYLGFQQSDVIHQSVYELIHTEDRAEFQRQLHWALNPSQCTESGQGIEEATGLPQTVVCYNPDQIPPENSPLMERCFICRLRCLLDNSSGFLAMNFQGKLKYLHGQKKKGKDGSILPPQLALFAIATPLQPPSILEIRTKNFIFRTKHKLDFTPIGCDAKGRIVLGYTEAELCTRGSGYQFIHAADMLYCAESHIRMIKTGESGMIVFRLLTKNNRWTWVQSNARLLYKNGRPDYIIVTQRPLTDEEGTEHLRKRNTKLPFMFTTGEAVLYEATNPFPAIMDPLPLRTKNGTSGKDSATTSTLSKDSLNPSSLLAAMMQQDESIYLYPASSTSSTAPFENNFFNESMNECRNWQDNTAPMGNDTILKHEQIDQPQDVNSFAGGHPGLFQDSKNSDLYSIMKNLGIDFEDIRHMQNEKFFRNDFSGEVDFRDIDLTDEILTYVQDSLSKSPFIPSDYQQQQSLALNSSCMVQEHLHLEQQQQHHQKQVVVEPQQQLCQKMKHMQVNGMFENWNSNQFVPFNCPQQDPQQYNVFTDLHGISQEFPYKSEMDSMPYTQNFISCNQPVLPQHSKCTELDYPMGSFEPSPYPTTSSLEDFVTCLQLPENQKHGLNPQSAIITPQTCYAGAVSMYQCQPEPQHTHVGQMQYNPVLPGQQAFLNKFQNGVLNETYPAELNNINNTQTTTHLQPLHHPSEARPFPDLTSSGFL", "experiment": "In vitro assay 1: antagonism in human cell line (AHR transactivation, firefly luciferase reporter, kynurenic acid prestimulated)", "format": "cell-based", "details": "AHR Antagonism Human IC50 [M]", "summary_of_the_method": "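Antagonism is measured against kynurenic acid prestimulation in U87 MG glioblastoma cells carrying stable DRE-luciferase and Renilla reporters. Positive inhibition control: 150 μM kynurenic acid with 5 μM staurosporine. Values are normalized to controls; repeats are averaged or given as medians.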"}, "AHR [2]": {"biological_target": "T2, AHR (Mus musculus, UniProt P30561)", "T2 sequence (P30561 1-848 P471L/N533S/M589L)": "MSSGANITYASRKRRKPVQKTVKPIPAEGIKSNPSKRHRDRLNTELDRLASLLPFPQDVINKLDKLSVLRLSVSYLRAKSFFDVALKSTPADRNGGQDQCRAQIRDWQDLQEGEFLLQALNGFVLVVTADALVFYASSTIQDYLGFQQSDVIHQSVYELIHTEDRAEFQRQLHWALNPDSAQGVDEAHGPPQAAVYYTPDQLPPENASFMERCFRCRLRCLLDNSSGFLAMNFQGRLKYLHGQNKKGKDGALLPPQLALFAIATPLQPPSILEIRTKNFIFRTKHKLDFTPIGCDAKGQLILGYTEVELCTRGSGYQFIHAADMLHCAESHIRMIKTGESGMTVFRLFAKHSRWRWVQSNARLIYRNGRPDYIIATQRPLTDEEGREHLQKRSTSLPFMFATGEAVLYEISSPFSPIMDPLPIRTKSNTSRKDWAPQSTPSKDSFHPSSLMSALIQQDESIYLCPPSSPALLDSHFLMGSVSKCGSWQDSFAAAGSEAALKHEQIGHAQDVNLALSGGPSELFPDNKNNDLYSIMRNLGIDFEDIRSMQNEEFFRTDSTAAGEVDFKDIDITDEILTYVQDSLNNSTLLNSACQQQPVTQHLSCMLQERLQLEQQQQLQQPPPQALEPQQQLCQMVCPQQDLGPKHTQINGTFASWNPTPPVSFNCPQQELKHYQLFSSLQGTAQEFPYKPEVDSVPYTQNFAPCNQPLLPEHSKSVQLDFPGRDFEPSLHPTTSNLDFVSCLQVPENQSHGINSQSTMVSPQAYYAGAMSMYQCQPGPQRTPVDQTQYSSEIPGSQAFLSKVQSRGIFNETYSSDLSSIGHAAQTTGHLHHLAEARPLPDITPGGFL", "experiment": "In vitro assay 3: antagonism in mouse cell line (AHR transactivation, firefly luciferase reporter, kynurenic acid prestimulated)", "format": "cell-based", "details": "200 μM kynurenic acid, 20 hours, read-out: AHR Antagonism Mouse IC50", "summary_of_the_method": "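Kynurenic acid-prestimulated mouse reporter cells; stable AHR-inducible firefly luc construct with DRE sites in promoter. No-agonist wells = positive inhibition ctrl. Luminescence normalized to pos/neg ctrls; n>1 reported as mean or median.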"}}, "note": "Like-named read-outs stand apart in the source and are kept apart here."}
{"smiles": "COc1ccccc1-c1nc2c3ccccc3nc(N[C@@H]3CCCCNC3=O)n2n1", "note": "[Example 61, (3R)-3-{[2-(2-methoxyphenyl)[1,2,4]triazolo[1,5-c]quinazolin-5-yl]amino}azepan-2-one]", "values": [{"measurement": "IC50", "setting": "AHR [1]", "result": "3.63e-08", "unit": "M"}, {"measurement": "IC50", "setting": "AHR [2]; mouse Hepa 1c1c7 cells", "result": 664, "unit": "nM"}]}
{"smiles": "O=C1NCCC[C@H]1Nc1nc2ccccc2c2nc(-c3ccccc3OC(F)(F)F)nn12", "note": "[Example 458, (3R)-3-({2-[2-(trifluoromethoxy)phenyl][1,2,4]triazolo[1,5-c]quinazolin-5-yl}amino)piperidin-2-one]", "values": [{"measurement": "IC50", "setting": "AHR [1]", "result": "6.37e-08", "unit": "M"}, {"measurement": "IC50", "setting": "AHR [2]; mouse Hepa 1c1c7 cells", "result": 28, "unit": "nM"}]}
{"smiles": "COc1ccc(-c2nc3c4cc(C#N)ccc4nc(N[C@@H]4CCCCNC4=O)n3n2)cc1", "note": "[Example 401, 2-(4-Methoxyphenyl)-5-{[(3R)-2-oxoazepan-3-yl]amino}[1,2,4]triazolo[1,5-c]quinazoline-9-carbonitrile]", "values": [{"measurement": "IC50", "setting": "AHR [1]", "result": "4.44e-09", "unit": "M"}, {"measurement": "IC50", "setting": "AHR [2]; mouse Hepa 1c1c7 cells", "result": 8.7, "unit": "nM"}]}
{"smiles": "CC(C)n1cc(-c2nc3c4cccc(Br)c4nc(N[C@@H]4CNCCNC4=O)n3n2)cn1", "note": "[Example 981, (6R)-6-({7-bromo-2-[1-(propan-2-yl)-1H-pyrazol-4-yl][1,2,4]triazolo[1,5-c]quinazolin-5-yl}amino)-1,4-diazepan-5-one]", "values": [{"measurement": "IC50", "setting": "AHR [1]; firefly luciferase reporter", "result": "2.69e-09", "unit": "M"}, {"measurement": "IC50", "setting": "AHR [2]; Hepa 1c1c7 cells, firefly luciferase reporter", "result": 5.95, "unit": "nM"}]}
{"smiles": "CCCCNC(=O)[C@H](C)Nc1nc2ccccc2c2nc(-c3ccc(Cl)cc3OC(F)(F)F)nn12", "note": "[Example 521, N-butyl-N^2-{2-[4-chloro-2-(trifluoromethoxy)phenyl][1,2,4]triazolo[1,5-c]quinazolin-5-yl}alaninamide]", "values": [{"measurement": "IC50", "setting": "AHR [1]", "result": "2.04e-08", "unit": "M"}, {"measurement": "IC50", "setting": "AHR [2]; mouse Hepa 1c1c7 cells", "result": 12.2, "unit": "nM"}]}
{"smiles": "COc1ccc(-c2nc3c4cc(C(C)C)ccc4nc(N[C@@H]4CCCCNC4=O)n3n2)cc1", "note": "[Example 392, (3R)-3-{[2-(4-Methoxyphenyl)-9-(propan-2-yl)[1,2,4]triazolo[1,5-c]quinazolin-5-yl]amino}azepan-2-one]", "values": [{"measurement": "IC50", "setting": "AHR [1]", "result": "2.38e-07", "unit": "M"}, {"measurement": "IC50", "setting": "AHR [2]; mouse Hepa 1c1c7 cells", "result": 31.5, "unit": "nM"}]}
{"smiles": "COc1ccc(-c2nc3c4ccc(F)cc4nc(N[C@@H]4CNCCNC4=O)n3n2)cc1", "note": "[Example 276, (6R)-6-{[8-fluoro-2-(4-methoxyphenyl)[1,2,4]triazolo[1,5-c]quinazolin-5-yl]amino}-1,4-diazepan-5-one]", "values": [{"measurement": "IC50", "setting": "AHR [1]", "result": "1.45e-08", "unit": "M"}, {"measurement": "IC50", "setting": "AHR [2]; mouse Hepa 1c1c7 cells", "result": 16.4, "unit": "nM"}]}
{"smiles": "COc1ccc(-c2nc3c4cccc(SC)c4nc(N[C@@H]4CCCCNC4=O)n3n2)cc1", "note": "[Example 766, (3R)-3-{[2-(4-methoxyphenyl)-7-(methylsulfanyl)[1,2,4]triazolo[1,5-c]quinazolin-5-yl]amino}azepan-2-one]", "values": [{"measurement": "IC50", "setting": "AHR [1]", "result": "1.64e-08", "unit": "M"}, {"measurement": "IC50", "setting": "AHR [2]; mouse Hepa 1c1c7 cells", "result": 47, "unit": "nM"}]}
{"smiles": "COc1cccc2c1nc(N[C@@H]1CCCCNC1=O)n1nc(-c3cn(C)nn3)nc21", "note": "[Example 756, (3R)-3-{[7-methoxy-2-(1-methyl-1H-1,2,3-triazol-4-yl)[1,2,4]triazolo[1,5-c]quinazolin-5-yl]amino}azepan-2-one]", "values": [{"measurement": "IC50", "setting": "AHR [1]", "result": "4.49e-06", "unit": "M"}, {"measurement": "IC50", "setting": "AHR [2]; mouse Hepa 1c1c7 cells", "result": 11700, "unit": "nM"}]}
{"smiles": "COc1ccc(-c2nc3c4ccc(C)cc4nc(N[C@@H]4CNCCNC4=O)n3n2)cc1", "note": "[Example 274, (6R)-6-{[2-(4-methoxyphenyl)-8-methyl[1,2,4]triazolo[1,5-c]quinazolin-5-yl]amino}-1,4-diazepan-5-one]", "values": [{"measurement": "IC50", "setting": "AHR [1]", "result": "1.09e-06", "unit": "M"}, {"measurement": "IC50", "setting": "AHR [2]; mouse Hepa 1c1c7 cells", "result": 2150, "unit": "nM"}]}
{"smiles": "NC(=O)[C@@H](CO)Nc1nc2ccccc2c2nc(-c3ccccc3)nn12", "note": "[Example 2, N^2-(2-phenyl[1,2,4]triazolo[1,5-c]quinazolin-5-yl)-D-serinamide]", "values": [{"measurement": "IC50", "setting": "AHR [1]", "result": "2.4e-08", "unit": "M"}, {"measurement": "IC50", "setting": "AHR [2]; mouse Hepa 1c1c7 cells", "result": 68.6, "unit": "nM"}]}
{"smiles": "O=C1NCCC1Nc1nc2ccccc2c2nc(-c3cccc(F)c3)nn12", "note": "(centres unmarked) [Example 9, 3-{[2-(3-fluorophenyl)[1,2,4]triazolo[1,5-c]quinazolin-5-yl]amino}pyrrolidin-2-one]", "values": [{"measurement": "IC50", "setting": "AHR [1]", "result": "2.62e-08", "unit": "M"}, {"measurement": "IC50", "setting": "AHR [2]; mouse Hepa 1c1c7 cells", "result": 68, "unit": "nM"}]}
{"smiles": "N#Cc1ccc(-c2nc3c4cccc(Br)c4nc(N[C@@H]4CCCNC4=O)n3n2)cc1", "note": "[Example 560, 4-(7-bromo-5-{[(3R)-2-oxopiperidin-3-yl]amino}[1,2,4]triazolo[1,5-c]quinazolin-2-yl)benzonitrile]", "values": [{"measurement": "IC50", "setting": "AHR [1]", "result": "3.8e-09", "unit": "M"}, {"measurement": "IC50", "setting": "AHR [2]; mouse Hepa 1c1c7 cells", "result": 5.57, "unit": "nM"}]}
